According to PMC10460844, “Real‐Time Monitoring of Multitarget Antimicrobial Mechanisms of Peptoids Using Label‐Free Imaging with Optical Diffraction Tomography” (Advanced Science, 2023):
Square brackets hold non-standard residues; d marks the D form. Peptide text beside a SMILES is read from it. Gly(N(CH2)2(3-indolyl)) = O=C(O)CNCCc1c[nH]c2ccccc12; Nspe = C[C@H](NCC(=O)O)c1ccccc1; Nlys = NCCCCNCC(=O)O

Legend:
[1] = Analytical reversed-phase HPLC elution (hydrophobicity); format: physicochemical; details: Table S1; analytical RP-HPLC, SunFire C18, water/ACN + 0.1% TFA, 5 to 100% B linear over 30 min, 1 mL/min, UV 220 nm; approximate comparison of hydrophobicity
Experimental: 7. HPLC chromatogram, retention time (tR), and LC-MS data
HPLC analysis of peptoids was conducted using a Waters HPLC system equipped with a Waters 2489 UV/Visible Detector, 1525 Binary HPLC Pump, 2707 Autosampler, 5CH column oven, and a C18 column (SunFire C18, 4.6 × 250 mm, 5 μm; Waters Corp., Milford, MA, USA). The mobile phases were deionized water (A, with + 0.1% TFA) and acetonitrile (ACN; B, with + 0.1% TFA). Before sample injection, the column was conditioned with 5% B for 10 min. Then, the mobile phase was maintained at 5% B for 2 min, followed by increasing B to 100% using a linear gradient over 30 min. At this point, 100% B was maintained for 5 additional min. The flow rate of the mobile phase was 1 mL/min. The sample was detected by measuring absorbance at 220 nm. […]

rat erythrocytes = assay: Hemolysis assay; format: cell-based; details: for HC10 / HC50: pH 7.4
Experimental: The hemolysis assay was performed using rat erythrocytes in phosphate‐buffered saline (PBS), as reported by Mendes et al.^[ [45] ^] Animal studies were approved by the Laboratory Animal Resource Center of Gwangju Institute of Science and Technology. Blood was collected from a 13‐week‐old male Sprague‐Dawley rat in tubes containing 158 USP units of sodium heparin to prevent coagulation and centrifuged at 1000 rpm for 10 min at 4 °C. Plasma was removed carefully and erythrocyte pellets were washed three times with PBS (35 mM phosphate, pH 7.4, 150 mM NaCl). Next, 150 µL of a 10% erythrocyte suspension was mixed with 50 µL of serially diluted peptoids (0–100 µM) in a 96‐well black polypropylene plates (Greiner, Kremsmünster, Austria). Untreated erythrocytes and cells lysed by the addition of 1% Triton X‐100 were used as negative and positive controls, respectively, with the 1% Triton X‐100‐treated wells being accepted to represent 100% hemolysis. The reaction mixture was incubated at 37 °C for 60 min, and the plates were centrifuged at 1000 rpm for 15 min. Aliquots (150 µL) of the supernatant were transferred to fresh 96‐well plates, and the absorbance of each well was measured at 540 nm using a microplate reader. Hemolysis induced by peptoids was calculated as the percentage value of Triton X‐100 lysed cells. The percentage of hemolysis by the extracts was calculated according to the following formula: % hemolysis = [(Abs 540 nm in the peptoid solution – Abs 540 nm in PBS) / (Abs 540 nm in 1% Triton X‐100 – Abs 540 nm in PBS)] × 100. HC10 and HC50 were defined as the peptoid concentrations that caused 10% and 50% hemolysis in rat erythrocytes, respectively. H max indicates the percentage of hemolysis observed at the maximum peptoid concentration, 100 µM throughout this study.

| SMILES | HPLC elution [1] [% MeCN] | Hmax (100 µM) (rat erythrocytes) [%] | HC10 (rat erythrocytes) [µM] | HC50 (rat erythrocytes) [µM] |
| --- | --- | --- | --- | --- |
| C[C@@H](c1ccccc1)N(CC(=O)N(CCCCN)CC(=O)N(CC(=O)N(CC(=O)N(CCCCN)CC(=O)N(CCc1c[nH]c2ccccc12)CC(=O)N(CCc1c[nH]c2ccccc12)CC(=O)N(CCCCN)CC(=O)N(CCc1c[nH]c2ccccc12)CC(=O)N(CCc1c[nH]c2ccccc12)CC(N)=O)[C@@H](C)c1ccccc1)[C@@H](C)c1ccccc1)C(=O)CN(C(=O)CNCCCCN)[C@@H](C)c1ccccc1 [peptoid 19] (H-[Nlys][Nspe][Nspe][Nlys][Nspe][Nspe][Nlys][Gly(N(CH2)2(3-indolyl))][Gly(N(CH2)2(3-indolyl))][Nlys][Gly(N(CH2)2(3-indolyl))][Gly(N(CH2)2(3-indolyl))]-NH2) | 52.8 | 101.5±1.3 | 3.8 | 12.5 |
| C[C@@H](c1ccccc1)N(CC(N)=O)C(=O)CN(C(=O)CN(CCCCN)C(=O)CN(CCc1c[nH]c2ccccc12)C(=O)CN(CCc1c[nH]c2ccccc12)C(=O)CN(CCCCN)C(=O)CN(CCc1c[nH]c2ccccc12)C(=O)CN(CCc1c[nH]c2ccccc12)C(=O)CN(CCCCN)C(=O)CN(C(=O)CN(C(=O)CNCCCCN)[C@@H](C)c1ccccc1)[C@@H](C)c1ccccc1)[C@@H](C)c1ccccc1 [peptoid 20] | 52.7 | 106.7±3.5 | 8.2 | 33.9 |
| C[C@@H](c1ccccc1)N(CC(N)=O)C(=O)CN(C(=O)CN(CCCCN)C(=O)CN(C(=O)CN(C(=O)CN(CCCCN)C(=O)CN(CCc1c[nH]c2ccccc12)C(=O)CN(CCc1c[nH]c2ccccc12)C(=O)CN(CCCCN)C(=O)CN(CCc1c[nH]c2ccccc12)C(=O)CN(CCc1c[nH]c2ccccc12)C(=O)CNCCCCN)[C@@H](C)c1ccccc1)[C@@H](C)c1ccccc1)[C@@H](C)c1ccccc1 [peptoid 21] | 53.2 | 83.7±2.0 | 23.2 | 64.9 |
| C[C@@H](c1ccccc1)N(CC(=O)N(CCc1c[nH]c2ccccc12)CC(=O)N(CCCCN)CC(=O)N(CC(=O)N(CCc1c[nH]c2ccccc12)CC(=O)N(CCCCN)CC(=O)N(CC(=O)N(CCc1c[nH]c2ccccc12)CC(=O)N(CCCCN)CC(=O)N(CC(=O)N(CCc1c[nH]c2ccccc12)CC(N)=O)[C@@H](C)c1ccccc1)[C@@H](C)c1ccccc1)[C@@H](C)c1ccccc1)C(=O)CNCCCCN [peptoid 22] (H-[Nlys][Nspe][Gly(N(CH2)2(3-indolyl))][Nlys][Nspe][Gly(N(CH2)2(3-indolyl))][Nlys][Nspe][Gly(N(CH2)2(3-indolyl))][Nlys][Nspe][Gly(N(CH2)2(3-indolyl))]-NH2) | 54.1 | 108.6±1.1 | 6.9 | 19.4 |
| NCCCCNCC(=O)N(CCc1c[nH]c2ccccc12)CC(=O)N(CCc1c[nH]c2ccccc12)CC(=O)N(CCCCN)CC(=O)N(CCc1c[nH]c2ccccc12)CC(=O)N(CCc1c[nH]c2ccccc12)CC(=O)N(CCCCN)CC(=O)N(CCc1c[nH]c2ccccc12)CC(=O)N(CCc1c[nH]c2ccccc12)CC(=O)N(CCCCN)CC(=O)N(CCc1c[nH]c2ccccc12)CC(=O)N(CCc1c[nH]c2ccccc12)CC(N)=O [peptoid 23] (H-[Nlys][Gly(N(CH2)2(3-indolyl))][Gly(N(CH2)2(3-indolyl))][Nlys][Gly(N(CH2)2(3-indolyl))][Gly(N(CH2)2(3-indolyl))][Nlys][Gly(N(CH2)2(3-indolyl))][Gly(N(CH2)2(3-indolyl))][Nlys][Gly(N(CH2)2(3-indolyl))][Gly(N(CH2)2(3-indolyl))]-NH2) | 53.0 | 72.2±0.3 | 17.1 | 45.2 |
| C[C@@H](c1ccccc1)N(CC(N)=O)C(=O)CN(CCCCN)C(=O)CN(CCCCN)C(=O)CN(C(=O)CN(C(=O)CN(CCCCN)C(=O)CN(CCc1c[nH]c2ccccc12)C(=O)CN(C(=O)CN(CCCCN)C(=O)CN(C(=O)CN(C(=O)CNCCCCN)[C@@H](C)c1ccccc1)[C@@H](C)c1ccccc1)[C@@H](C)c1ccccc1)[C@@H](C)c1ccccc1)[C@@H](C)c1ccccc1 [peptoid 24] | 49.4 | 1.5±0.0 | > 100 | > 100 |
| C[C@@H](c1ccccc1)N(CC(N)=O)C(=O)CN(C(=O)CN(CCCCN)C(=O)CN(C(=O)CN(CCCCN)C(=O)CN(CCCCN)C(=O)CN(CCc1c[nH]c2ccccc12)C(=O)CN(C(=O)CN(CCCCN)C(=O)CN(C(=O)CN(C(=O)CNCCCCN)[C@@H](C)c1ccccc1)[C@@H](C)c1ccccc1)[C@@H](C)c1ccccc1)[C@@H](C)c1ccccc1)[C@@H](C)c1ccccc1 [peptoid 25] | 50.8 | 2.7±0.4 | > 100 | > 100 |
| C[C@@H](c1ccccc1)N(CC(N)=O)C(=O)CN(C(=O)CN(CCCCN)C(=O)CN(C(=O)CN(C(=O)CN(CCCCN)C(=O)CN(CCc1c[nH]c2ccccc12)C(=O)CN(CCCCN)C(=O)CN(CCCCN)C(=O)CN(C(=O)CN(C(=O)CNCCCCN)[C@@H](C)c1ccccc1)[C@@H](C)c1ccccc1)[C@@H](C)c1ccccc1)[C@@H](C)c1ccccc1)[C@@H](C)c1ccccc1 [peptoid 26] | 49.5 | 0.7±0.1 | > 100 | > 100 |
| C[C@@H](c1ccccc1)N(CC(N)=O)C(=O)CN(C(=O)CN(CCCCN)C(=O)CN(C(=O)CN(C(=O)CN(CCCCN)C(=O)CN(CCc1c[nH]c2ccccc12)C(=O)CN(C(=O)CN(CCCCN)C(=O)CN(C(=O)CN(CCCCN)C(=O)CNCCCCN)[C@@H](C)c1ccccc1)[C@@H](C)c1ccccc1)[C@@H](C)c1ccccc1)[C@@H](C)c1ccccc1)[C@@H](C)c1ccccc1 [peptoid 27] | 50.7 | 5.9±0.2 | > 100 | > 100 |
| C[C@@H](c1ccccc1)N(CC(=O)N(CCCCN)CC(=O)N(CCCCN)CC(=O)N(CCc1c[nH]c2ccccc12)CC(=O)N(CCc1c[nH]c2ccccc12)CC(N)=O)C(=O)CN(CCCCN)C(=O)CN(C(=O)CN(C(=O)CN(CCCCN)C(=O)CN(C(=O)CN(C(=O)CNCCCCN)[C@@H](C)c1ccccc1)[C@@H](C)c1ccccc1)[C@@H](C)c1ccccc1)[C@@H](C)c1ccccc1 [peptoid 28] (H-[Nlys][Nspe][Nspe][Nlys][Nspe][Nspe][Nlys][Nspe][Nlys][Nlys][Gly(N(CH2)2(3-indolyl))][Gly(N(CH2)2(3-indolyl))]-NH2) | 48.6 | 8.9±1.4 | > 100 | > 100 |
| C[C@@H](c1ccccc1)N(CC(=O)N(CCCCN)CC(=O)N(CC(=O)N(CC(=O)N(CCCCN)CC(=O)N(CCc1c[nH]c2ccccc12)CC(=O)N(CCc1c[nH]c2ccccc12)CC(N)=O)[C@@H](C)c1ccccc1)[C@@H](C)c1ccccc1)C(=O)CN(CCCCN)C(=O)CN(CCCCN)C(=O)CN(C(=O)CN(C(=O)CNCCCCN)[C@@H](C)c1ccccc1)[C@@H](C)c1ccccc1 [peptoid 30] (H-[Nlys][Nspe][Nspe][Nlys][Nlys][Nspe][Nlys][Nspe][Nspe][Nlys][Gly(N(CH2)2(3-indolyl))][Gly(N(CH2)2(3-indolyl))]-NH2) | 48.8 | 8.4±0.5 | > 100 | > 100 |
| C[C@@H](c1ccccc1)N(CC(=O)N(CCCCN)CC(=O)N(CC(=O)N(CC(=O)N(CCCCN)CC(=O)N(CC(=O)N(CC(=O)N(CCCCN)CC(=O)N(CCc1c[nH]c2ccccc12)CC(=O)N(CCc1c[nH]c2ccccc12)CC(N)=O)[C@@H](C)c1ccccc1)[C@@H](C)c1ccccc1)[C@@H](C)c1ccccc1)[C@@H](C)c1ccccc1)C(=O)CN(CCCCN)C(=O)CNCCCCN [peptoid 31] (H-[Nlys][Nlys][Nspe][Nlys][Nspe][Nspe][Nlys][Nspe][Nspe][Nlys][Gly(N(CH2)2(3-indolyl))][Gly(N(CH2)2(3-indolyl))]-NH2) | 50.2 | 18.4±5.0 | 59.0 | > 100 |
